Columns and labels:
human TARS = assay: GTPase (GTP hydrolysis) assay; assay type: biochemical; conditions: canonical substrate added to human TARS
[1] = test system: chorioallantoic membrane (CAM); assay: Chick chorioallantoic membrane (CAM) assay; assay type: in vivo, chicken; conditions: for CAM vessel formation / vascularization on application of protein: purified protein applied daily to sponge on CAM, 72 h
Procedure: Chick Chorioallantoic Membrane Assay—Fertilized chicken eggs (Sunrise Farms, Catskill, N.Y.) day 1-2 post-laying were incubated in a humidified incubator at 37° C. for 72 h. Cleaned eggs were cracked and plated in a sterile 10 cm^2 tissue culture-treated dish and incubated at 37° C. for another 7 days. On developmental day 10, 1 mm sterile gelatin sponge pieces (Surgifoam®; Johnson & Johnson Wound Management, Somerville, N.J.) were placed within the outer one-third of the membrane between large vessels. 40 μg/ml human bFGF and 2 μg/ml human VEGF were used as pro-angiogenic control compounds; 100 μg/mL retinoic acid (Sigma-Aldrich, St. Louis, Mo.) diluted in phosphate-buffered saline (PBS) was used as an angiostatic control. All compounds were applied in 10 μl to the CAM every 24 h for 72 h. Images were taken using a Leica MZ6 stereomicroscope every 24 h. Compounds were scored according to a modified version of Intensity Scoring as previously described (Ribatti, Nico et al. 2006). Briefly, each experimental condition was given a blinded score from 0-5 based on the change in the extent of vessel convergence and formation in proximity to the sponge from day 0 to day 3. Total score is averaged individual experimental condition scores from at least 15 replicates.
Fertilized chicken embryos were cultured ex-ova and, starting at developmental day 10, agents were applied daily to gelfoam sponges on the CAM. Images were recorded daily over 72 h and scored blindly according to a modified version Intensity Scoring as previously described (Ribatti, Nico, 2006). Additional details regarding methods are provided in the Methods and Materials section of Example 1.

Row | Molecule | CAM vessel formation / vascularization on application of protein [1] | also measured
1 | Nc1ncnc2c1ncn2[C@@H]1O[C@H](COP(=O)(O)OP(=O)(O)OP(=O)(O)O)[C@@H](O)[C@H]1O [ATP] | – | decrease in GTPase activity (human TARS): 77%
2 | C[C@@H](O)[C@H](N)C(=O)O [threonine] | – | increase in GTPase activity (human TARS): 26%
3 | LARS: N-terminal His6-tagged human leucyl tRNA synthetase purified from E. coli | no observable effect | –
4 | L567V TARS: BC194-resistant (borrelidin-resistant) L567V mutant of human TARS (protein, UniProt P26639 1-723, looked up, variant L567V) Threonine--tRNA ligase 1, …: MFEEKASSPSGKMGGEEKPIGAGEEKQKEGGKKKNKEGSGDGGRAELNPWPEYIYTRLEMYNILKAEHDSILAEKAEKDSKPIKVTLPDGKQVDAESWKTTPYQIACGISQGLADNTVIAKVNNVVWDLDRPLEEDCTLELLKFEDEEAQAVYWHSSAHIMGEAMERVYGGCLCYGPPIENGFYYDMYLEEGGVSSNDFSSLEALCKKIIKEKQAFERLEVKKETLLAMFKYNKFKCRILNEKVNTPTTTVYRCGPLIDLCRGPHVRHTGKIKALKIHKNSSTYWEGKADMETLQRIYGISFPDPKMLKEWEKFQEEAKNRDHRKIGRDQELYFFHELSPGSCFFLPKGAYIYNALIEFIRSEYRKRGFQEVVTPNIFNSRLWMTSGHWQHYSENMFSFEVEKELFALKPMNCPGHCLMFDHRPRSWRELPLRLADFGVLHRNELSGALTGLTRVRRFQQDDAHIFCAMEQIEDEIKGCLDFLRTVYSVFGFSFKLNLSTRPEKFLGDIEVWDQAEKQLENSLNEFGEKWELNSGDGAFYGPKIDIQIKDAIGRYHQCATIQLDFQVPIRFNLTYVSHDGDDKKRPVIVHRAILGSVERMIAILTENYGGKWPFWLSPRQVMVVPVGPTCDEYAQKVRQQFHDAKFMADIDLDPGCTLNKKIRNAQLAQYNFILVVGEKEKISGTVNIRTRDNKVHGERTISETIERLQQLKEFRSKQAEEEF | stimulated vessel formation | sensitivity of the protein's CAM angiogenic effect to BC194 ([1]; protein co-applied with BC194): not inhibited
5 | R442A TARS: aminoacylation-deficient human TARS mutant, active site Arg442 substituted with alanine (protein, UniProt P26639 1-723, looked up, variant R442A) Threonine--tRNA ligase 1, …: MFEEKASSPSGKMGGEEKPIGAGEEKQKEGGKKKNKEGSGDGGRAELNPWPEYIYTRLEMYNILKAEHDSILAEKAEKDSKPIKVTLPDGKQVDAESWKTTPYQIACGISQGLADNTVIAKVNNVVWDLDRPLEEDCTLELLKFEDEEAQAVYWHSSAHIMGEAMERVYGGCLCYGPPIENGFYYDMYLEEGGVSSNDFSSLEALCKKIIKEKQAFERLEVKKETLLAMFKYNKFKCRILNEKVNTPTTTVYRCGPLIDLCRGPHVRHTGKIKALKIHKNSSTYWEGKADMETLQRIYGISFPDPKMLKEWEKFQEEAKNRDHRKIGRDQELYFFHELSPGSCFFLPKGAYIYNALIEFIRSEYRKRGFQEVVTPNIFNSRLWMTSGHWQHYSENMFSFEVEKELFALKPMNCPGHCLMFDHRPRSWRELPLRLADFGVLHANELSGALTGLTRVRRFQQDDAHIFCAMEQIEDEIKGCLDFLRTVYSVFGFSFKLNLSTRPEKFLGDIEVWDQAEKQLENSLNEFGEKWELNSGDGAFYGPKIDIQIKDAIGRYHQCATIQLDFQLPIRFNLTYVSHDGDDKKRPVIVHRAILGSVERMIAILTENYGGKWPFWLSPRQVMVVPVGPTCDEYAQKVRQQFHDAKFMADIDLDPGCTLNKKIRNAQLAQYNFILVVGEKEKISGTVNIRTRDNKVHGERTISETIERLQQLKEFRSKQAEEEF | virtually indistinguishable from wild type | –

Reference: patent US11719696B2, “Methods and compounds for diagnosing threonyl-tRNA synthetase-associated diseases and conditions” (The University of Vermont and State Agricultural College, priority 2012, dated 2023)
